The results in this text go back to US20190350955A1, “METHODS AND PHARMACEUTICAL COMPOSITIONS FOR THE TREATMENT OF CARDIOMYOPATHIES” (INSERM (Institut National de la Sante et de la Recherche …, priority 2016, published 2019).

Format in all cases: in vivo, mouse
The subject of assay [1] is Lmna^H222P/H222P mice. In words: qPCR of cardiac remodeling markers Myh7, Nppa, Col1a2 in heart. To be noted: NR diet 9 weeks vs chow-diet. The protocol:
(§1) Mice were bred in an accredited animal facility (accreditation number: C-75-13-08). All experiments on mice were approved by the Comité d'éthique en expérimentation animate Charles Darwin No 5. Mice Lmna^H222P/H222P were backcrossed 8 times to 129S2/SvPasOrlRj strain mice to obtain pure genetic background. Male mice used for the studies were maintained under a 12 h light/12 h dark cycle at constant temperature (23° C.) with free access to food and water. Nicotinamide riboside (NR) complementation: Animals at 17 weeks of age were fed for 9 weeks with either a chow diet (A04: Scientific Animal Food & Engineering) or a chow diet complemented with 0.25% of NR (kindly provided by ChromaDex, Inc. California) corresponding to a dose of 400 mg/kg/day for a mouse weighing 25 g eating 4 g of food per day. Nicotinamide (NAM) treatment: Animals at 17 weeks of age were injected intraperitoneally (IP) every two days (q.a.d.) for 9 weeks with either physiologic serum or physiologic serum added with NAM at 50 mg/ml corresponding to a dose of 500 mg/kg for a mouse weighing 25 g.
Total RNAs were extracted from around 5 mg of mouse heart using RNeasy Mini kit (Qiagen). RNAs integrity were controlled on the Bioanalyzer 2100 (Agilent). […] Relative mRNA transcript levels calculated using the 2^ΔCT method were normalized by comparison to housekeeping mRNA.
In general terms: In qPCR the cycle at which signal appears reflects the starting amount.

The subject of assay [2] is TAC mice. In words: Echocardiography after transverse aorta constriction (TAC). To be noted: NR enriched diet 400 mg/kg/day vs untreated TAC group. The protocol: Transverse aorta constriction was performed in 2 month-old male mice under anesthesia (ketamine 100 mg/kg, xylazin 16 mg/kg). Skin was opened above the sternum and the upper part of the sternum was cut on a length of 2 mm allowing the mouse to breath without the need of a ventilator. A surgical suture was passed under the aortic cross between the right brachiocephalic (innominate) artery and left common carotid artery and a 27-½ gauge blunt needle was placed parallel to the wall of the aortic cross as a calibrator. Two loose knots were tied around the aortic cross and the needle. […]
Echocardiography was performed on lightly anesthetized mice given isoflurane (induction with 2% isoflurane 100% O2. and maintained with 0.5% isoflurance 100% O2). Non-invasive measurements of left ventricular dimensions were evaluated using Doppler echocardiography (Vivid 7 Dimension/Vivid7 PRO; GE Medical Systems) with a probe ultrasound frequency range of 9-14 MHz. […] LV fractional shortening (FS) was calculated using the formula: (LVEDD−LVESD)/LVEDD×100. LV myocardial volume (LVV), LV end-diastolic volume (EDV), and end-systolic volume (ESV) were calculated using a half-ellipsoid model of the LV. From these volumes, LV ejection fraction (EF) was calculated using, the formula: (EDV−ESV)/EDV×100. H/R ratio was calculated by the formula (PWThd+IVSThd)/LVEDd.

Assay [3] deals with Lmna^WT/WT mice. In words: Echocardiography in NR-diet wild type mice. To be noted: whatever the diet and the course of the treatment. The protocol:
as §1, with “Nicotinamide (NAM) treatment: Animals at 17 weeks of age were injected intraperitoneally (IP) every two days (q.a.d.) for 9 weeks with either physiologic serum or physiologic serum added with NAM at 50 mg/ml corresponding to a dose of 500 mg/kg for a mouse weighing 25 g.” left out
Mouse transthoracic echocardiography was performed using an ACUSON 128XP/10 ultrasound with a 11 Mhz linear probe (Mountain View).MHz transducer applied to the chest wall. […] The intra ventricular septum (IVS), LV posterior wall (LVPW), LV diameter (LVD) in diastole and systole, the percentage of fractional shortening (FS) and the heart rate (HR) were measured from the mean of at least three separate cardiac cycles. […]

Assay [4] relates to Lmna^H222P/H222P mice. In words: Survival of Lmna H222P/H222P mice on NR diet. The protocol:
as §1
For survival analysis, Lmna^H222P/H222P mice were fed chow supplemented with 0.25% nicotinamide riboside when they were 17 weeks of age and continued until they suffered from significant distress or died. p≤0.001

For the molecule `NC(=O)c1ccc[n+]([C@@H]2O[C@H](CO)[C@@H](O)[C@H]2O)c1` [NR, nicotinamide riboside], the “expression of Myh7, Nppa and Col1a2 (markers of cardiac remodeling)” value in assay [1] was “significant lowering”. In addition, in assay [2], the “drop in LVEF triggered by TAC” value was “limits” and the “thickening of the interventricular septum (IVSTh) triggered by TAC” value is reported as “limits”. In assay [3], the “cardiac structure and function by echocardiography” value is listed as “No difference”. In assay [4] (NR diet 400 mg/kg/day, 9 weeks from 17 weeks of age, 38% of chow-diet mice died), the “mice that died over the course of the treatment protocol” value was “none”. In addition, the “age at which mice started to die” value in assay [4] (pilot survival study, NR feeding from 17 weeks of age, chow-diet 30 weeks) is recorded as 38 weeks. Further, the mean of survival in assay [4] (pilot survival study, NR feeding from 17 weeks of age, chow-diet 33 weeks) was determined as 39 weeks.
